Earlier results in publication PMC5133935, “Hydrostatin-TL1, an Anti-Inflammatory Active Peptide from the Venom Gland of Hydrophis cyanocinctus in the South China Sea” (International Journal of Molecular Sciences, 2016).

Tested on: TNF-α
Conditions: cited from earlier work
From the text: Snake-derived products have been used as traditional Chinese medicines for centuries in China; however, their mechanisms of action and active constituents are still unknown. Snake venom, which is a mixture of proteins and peptides, has various biological properties including antitumor, anti-inflammatory, anti-stroke, and analgesic activities. […] Venom from s ...

Q: For Cathelicidin-BF, which “antimicrobial and anti-inflammatory properties” value is on record?
A: Its value is “both antimicrobial and anti-inflammatory properties”.

Q: And the “expression and secretion of TNF-α” value?
A: Its value is “decreases the expression and secretion of TNF-α”.
